Data: US12698264B2, “Synthesis of tigilanol tiglate and analogs thereof” (THE BOARD OF TRUSTEES OF THE LELAND STANFORD JUNIOR …, priority 2021, dated 2026)
Entries after “also recorded” stand apart in the source; their conditions may differ.

What was measured:
[1] = test system: PKC-βI-GFP; type: cell-based, Chinese hamster
Protocol: 2 mL of fresh F-12−/− was then added to each well, taking care not to disturb adherent cells. […] 250 μL of the Lipofectamine 2000 suspension was added to the DNA suspension and the solution incubated for 30 minutes at RT. 500 μL of the Lipofectamine/DNA suspension was added to the respective wells of the 6-well plate. The cells were then incubated at 37° C.

[2] = Incubation in neutral aqueous media; type: physicochemical; conditions: upon incubation in neutral aqueous media
[3] = test system: mast cell tumors; conditions: canines, cited from earlier work
[4] = test system: protein kinase C (PKC); type: binding, human
Protocol: (§1) The protein kinase C (PKC) affinity of EBC-46 and EBC-46 analogs was performed via competition with ^3H-phorbol-12,13-dibutyrate (^3H-PDBu). This procedure entailed a glass-fiber filtration method to determine bound radioligand.
(§2) Preparation of PKC binding assay buffer: To a 50 mL polypropylene tube was added Tris-HCl (pH 7.4, 1 M, 1 mL), KCl (1 M, 2 mL), CaCl2 (0.1 M, 30 μL), and bovine serum albumin (BSA, 40 mg, Sigma-Aldrich). This mixture was diluted to 20 mL with deionized H2O and mixed gently. The buffer was stored on ice until use.
(§3) Preparation of phosphatidylserine (PS) vesicles: For every two assays, 3.5 mg phosphatidylserine (Avanti Polar Lipids, porcine, 25 mg/mL CHCl3 solution) was concentrated by removing chloroform under a stream of nitrogen followed by reduced pressure. […]
(§4) For each data point, 280 μL of “Master Mix” Solution and 20 μL of analog compound at a specified concentration were added to a polypropylene tube. […] Maximal ^3H-PDBu binding was assessed in triplicate by substitution of the analog compound with 20 μL DMSO. […] Scintillation vials were filled with Bio-Safe II scintillation fluid (5 mL) and measured for radioactivity using a Beckman LS 6000SC scintillation counter. […] The Kd of ^3H-PDBu for PKC isoforms was measured separately via saturation binding experiments under identical conditions.

[5] = molecular target: T1, PKC-βI (Homo sapiens, UniProt P05771); type: binding
T1 construct: purchased Invitrogen
Protocol: as §1, §2, §3, §4

[6] = molecular target: PKC δ (Homo sapiens, UniProt Q05655); test: PKC binding of trigowiin A; conditions: type of constant not given; read-out: binds with PKC δ
[7] = test system: chikungunya virus (CHKV); conditions: cited from earlier work
[8] = molecular target: PKC β (Homo sapiens, UniProt P05771); test: PKC binding of trigowiin A; conditions: type of constant not given; read-out: binds with PKC β
Chain of PKC β (P05771 whole entry, species assumed): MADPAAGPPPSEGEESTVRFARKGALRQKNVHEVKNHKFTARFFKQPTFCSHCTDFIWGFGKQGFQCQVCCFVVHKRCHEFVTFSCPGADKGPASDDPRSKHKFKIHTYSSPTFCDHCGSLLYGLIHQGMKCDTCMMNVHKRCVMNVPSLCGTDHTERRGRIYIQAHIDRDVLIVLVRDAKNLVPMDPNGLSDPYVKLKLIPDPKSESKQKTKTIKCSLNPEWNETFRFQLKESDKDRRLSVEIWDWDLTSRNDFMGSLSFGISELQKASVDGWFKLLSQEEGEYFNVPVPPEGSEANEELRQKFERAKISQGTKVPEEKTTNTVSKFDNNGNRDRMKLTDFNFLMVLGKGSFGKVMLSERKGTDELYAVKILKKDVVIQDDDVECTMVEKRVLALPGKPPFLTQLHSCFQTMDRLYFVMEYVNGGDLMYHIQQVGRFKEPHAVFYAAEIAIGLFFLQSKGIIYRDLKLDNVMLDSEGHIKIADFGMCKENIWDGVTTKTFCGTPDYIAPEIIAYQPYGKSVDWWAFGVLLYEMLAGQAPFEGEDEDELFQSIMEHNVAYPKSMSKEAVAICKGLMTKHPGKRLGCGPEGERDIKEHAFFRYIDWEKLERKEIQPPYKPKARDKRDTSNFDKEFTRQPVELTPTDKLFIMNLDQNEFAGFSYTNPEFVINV

T1 sequence (P05771 whole entry): as the sequence (P05771 whole entry, species assumed) above
Chain of PKC δ (Q05655 whole entry): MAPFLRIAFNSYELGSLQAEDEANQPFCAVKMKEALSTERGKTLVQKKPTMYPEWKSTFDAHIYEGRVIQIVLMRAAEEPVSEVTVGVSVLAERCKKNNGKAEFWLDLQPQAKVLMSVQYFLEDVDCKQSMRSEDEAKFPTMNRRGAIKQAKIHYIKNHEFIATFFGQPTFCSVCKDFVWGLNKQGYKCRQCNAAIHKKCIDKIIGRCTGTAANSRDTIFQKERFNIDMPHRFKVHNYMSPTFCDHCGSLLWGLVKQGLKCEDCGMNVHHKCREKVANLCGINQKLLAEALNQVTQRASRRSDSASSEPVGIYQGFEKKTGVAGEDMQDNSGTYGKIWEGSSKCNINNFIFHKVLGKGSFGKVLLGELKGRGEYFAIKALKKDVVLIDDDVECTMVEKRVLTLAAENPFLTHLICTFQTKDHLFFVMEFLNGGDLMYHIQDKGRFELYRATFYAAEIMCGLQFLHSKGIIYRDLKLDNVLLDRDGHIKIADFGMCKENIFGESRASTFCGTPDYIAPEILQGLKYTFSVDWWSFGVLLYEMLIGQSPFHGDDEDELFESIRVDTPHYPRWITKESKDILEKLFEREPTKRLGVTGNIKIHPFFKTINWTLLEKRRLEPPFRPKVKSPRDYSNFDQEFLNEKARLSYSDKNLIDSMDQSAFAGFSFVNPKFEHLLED

Compound	translocation of PKC-βI-GFP [1]	stability in neutral aqueous media [2]	remission ([3]; after a second dose)	complete response ([3]; after a single intratumoral injection)	PKC binding affinity [4]	PKC isoform binding selectivity [5]	PKC δ binding value (constant type not stated) [6]	antiviral activity against chikungunya virus [7]	PKC β binding affinity [8]
C/C=C(\C)C(=O)O[C@@H]1[C@@H](C)[C@@]2(O)C([C@@H]3C(C)(C)[C@]13OC(=O)[C@@H](C)CC)[C@@H]1O[C@]1(CO)[C@@H](O)[C@]1(O)C(=O)C(C)=C[C@H]12 (stereo partly shown) [EBC-46, tigilanol tiglate]	modest translocation; also recorded: robust translocation	spontaneously undergo Payne rearrangement to EBC-211	88%	75%	potent PKC affinity	isoform-selective binding	–	–	–
CC(=O)O[C@@H]1[C@@H](C)[C@@]2(O)C([C@@H]3C(C)(C)[C@]13OC(C)=O)[C@@H]1O[C@]1(CO)[C@@H](O)[C@]1(O)C(=O)C(C)=C[C@H]12 (stereo partly shown) [SUW401]	–	–	–	–	very low PKC binding affinity	–	–	–	–
trigowiin A	–	–	–	–	–	–	20.3 nM	moderate antiviral activity	19.3 nM
